Patent publication US20260265302A1, “PEPTIDE WITH ACTIVITY OF PROMOTING HAIR GROWTH OR INHIBITING HAIR LOSS AND USE THEREOF” (CAREGEN CO., LTD., priority 2023, published 2026)
Entries after “also recorded” stand apart in the source; their conditions may differ.

Columns and labels:
[1] = tested on: β-catenin; assay: Nuclear β-catenin western blot (promotion of proliferation mechanism of hair follicle cells); assay type: cell-based, human; conditions: HHFDPC; for translocation of β-catenin from the cytoplasm to the nucleus (in words): peptides at various concentrations (FIG. 6)
Method: To confirm the effect of a peptide consisting of the amino acid sequence of SEQ ID NO: 1 on promoting the proliferation mechanism of hair follicle cells. Specifically, human hair follicle dermal papilla cells were seeded in a 6-well plate at a density of 4×10^5 cells/well and cultured for 24 hours. After replacing with serum-free mesenchymal stem cell medium, the cells were cultured for 24 hours. A peptide was treated at concentrations of 10 μM, 50 μM, or 100 μM, respectively, and incubated at 37° C. for 24 hours. As a positive control group, 10 ng/ml of recombinant human Wnt-3a protein was treated. After washing with PBS, nucleoproteins were isolated using a nucleoprotein extraction kit (Thermo scientific, USA) and quantified with BCA to prepare equal amounts of protein samples. The proteins separated by electrophoresis using a 10% SDS-PAGE gel were transferred to a PVDF membrane. Blocking was performed at room temperature for 30 minutes using 5% skim milk. β-catenin (cell signaling, USA) and HDAC1 (santa cruz, USA) antibodies were diluted 1:1000 in 3% BSA and reacted with the membrane at 4° C. for 16 hours. The membrane was washed three times with 0.1% PBS-T (0.1% Tween-20 in PBS) for 15 minutes each. The secondary antibody was diluted 1:2000 in 5% skim milk and reacted at room temperature for 1 hour. The membrane was then washed three times with 0.1% PBS-T (0.1% Tween-20 in PBS) for 15 minutes each. After treatment with ECL solution (GE Healthcare, USA), the membrane was detected.
The proliferation-promoting effects of a novel peptide consisting of the amino acid sequence of SEQ ID NO: 1 and a peptide consisting of the amino acid sequence of SEQ ID NO: 10 on hair follicle cells were compared. The experiment was conducted in the same manner as described in Example 3, in which HHFDPC was treated with peptides at various concentrations and the translocation of β-catenin from the cytoplasm to the nucleus was measured.

[2] = tested on: Cyclin D1; assay: RT-PCR expression of Cyclin D1 in hair follicle dermal papilla cells; assay type: cell-based, human; conditions: HHFDPC, peptide 10, 50 or 100 μM, 24 hours, maximum effect (FIG. 3)
Method: (§1) To confirm the effect of a peptide consisting of the amino acid sequence of SEQ ID NO: 1 on promoting hair follicle cell activity. Human hair follicle dermal papilla cells were seeded in 6-well plates at a density of 4×10^5 cells/well and cultured for 24 hours. After replacing with serum-free mesenchymal stem cell medium, the cells were cultured for 24 hours. A peptide was treated at concentrations of 10 μM, 50 μM, or 100 μM, respectively, and incubated at 37° C. for 24 hours. As a positive control group, 10 ng/mL of recombinant human Wnt-3a protein was treated. After washing with PBS, RNA was isolated by treating with 300 μL of easy blue (intron, Korea). After RNA quantification, cDNA synthesis was performed using a cDNA synthesis kit (enzynomics, Korea). Electrophoresis was performed on a 1.5% agarose gel and band detection was performed using a Bio-Rad gel image system.

[3] = tested on: DKK-1; assay: DHT-induced DKK-1 expression western blot in hair follicle dermal papilla cells; assay type: cell-based, human; conditions: HHFDPC; for inhibiting effect on DKK-1 expression (in words): DHT-induced, peptides at different concentrations (FIG. 4, FIG. 7)
Method: To confirm whether a peptide consisting of the amino acid sequence of SEQ ID NO: 1 inhibits the expression of DKK-1, a hair loss-related factor, in hair follicle cells. Human hair follicle dermal papilla cells were seeded in 6-well plates at a density of 4×10^5 cells/well and cultured for 24 hours. After replacing with serum-free mesenchymal stem cell medium, the cells were cultured for 24 hours. The peptides were treated at concentrations of 10 μM, 50 μM, or 100 μM, respectively, and simultaneously treated with DHT, an inducer of hair loss protein DKK-1, at a concentration of 100 nM. As a positive control group, 5 μM of finasteride, a drug that inhibits androgens, was treated. DHT is known as a hair loss hormone that increases the expression of DKK-1 (Dickkopf-related protein 1), a hair loss-inducing factor, by activating androgen receptors. After culturing at 37° C. for 24 hours, the cells were washed with PBS, treated with lysis buffer to prepare cell lysates, and equal amounts of protein samples were prepared by BCA quantification. Electrophoresis was performed using a 10% SDS-PAGE gel. Proteins separated by SDS PAGE were transferred to a PVDF membrane. Blocking was performed at room temperature for 30 minutes using 5% skim milk. DKK-1 (cell signaling, USA) antibody was diluted 1:1000 in 3% BSA and reacted with the membrane at 4° C. for 16 hours. The membrane was then washed three times with 0.1% PBS-T (0.1% Tween-20 in PBS) for 15 minutes each. The secondary antibody was diluted 1:2000 in 5% skim milk and reacted at room temperature for 1 hour. The membrane was then washed three times with 0.1% PBS-T (0.1% Tween-20 in PBS) for 15 minutes each. After treatment with ECL solution (GE Healthcare, USA), protein band detection and densitometry were performed using ImageQuant 800 (Amersham, USA).
The effect of inhibiting the expression of hair loss-related factors was compared between the novel peptide consisting of the amino acid sequence of SEQ ID NO: 1 and the peptide consisting of the amino acid sequence of SEQ ID NO: 10. The experiment was conducted in the same manner as described in Example 5, and it was confirmed whether the expression of DKK-1, a hair loss-related factor, was inhibited after treating HHFDPC with peptides at different concentrations.

[4] = tested on: Lef-1; assay: RT-PCR expression of Lef-1 in hair follicle dermal papilla cells; assay type: cell-based, human; conditions: HHFDPC, peptide 10, 50 or 100 μM, 24 hours, maximum effect (FIG. 3)
Method: as §1

[5] = tested on: c-Myc; assay: RT-PCR expression of c-Myc in hair follicle dermal papilla cells; assay type: cell-based, human; conditions: HHFDPC, peptide 10, 50 or 100 μM, 24 hours, maximum effect (FIG. 3)
Method: as §1

[6] = tested on: human hair follicle dermal papilla cells; assay: Hair follicle cell proliferation (SRB staining, absorbance 560 nm); assay type: cell-based; conditions: HHFDPC; for proliferation effect on hair follicle cells (in words): peptides at different concentrations (FIG. 1, FIG. 5)
Method: To confirm the effect of a peptide consisting of the amino acid sequence of SEQ ID NO: 1 on promoting the proliferation of hair follicle cells. Specifically, human hair follicle dermal papilla cells were seeded in a 96-well plate at a density of 4×10^3 cells/well and cultured for 24 hours. After replacing with serum-free mesenchymal stem cell medium, the cells were cultured for 24 hours. The above peptide was treated at concentrations of 10 μM, 50 μM, or 100 μM, respectively, and incubated at 37° C. for 72 hours. As a positive control group, 1 μM of Minoxidil, a hair loss treatment drug, was treated. After completion of culturing, the culture supernatant was removed and the cells were fixed using ethanol. After washing with PBS, staining was performed by treating with SRB solution. After washing with 1% acetic acid, cells were observed under a microscope and destained by treating with 20 mM tris solution. Cell viability was measured by measuring absorbance at a wavelength of 560 nm using a spectrophotometer (SpectraMax iD3, Molecular Devices (USA, CA)).
The proliferation effects of a novel peptide consisting of the amino acid sequence of SEQ ID NO: 1 and a peptide consisting of the amino acid sequence of SEQ ID NO: 10 disclosed in KR10-1285259 (Table 3) on hair follicle cell proliferation were compared. The experiment was conducted in the same manner as described in Example 2, and the cell proliferation effect was measured after treating HHFDPC with peptides at different concentrations.

| Sequence | nuclear translocation of β-catenin from the cytoplasm to the nucleus, increase ([1]; peptide 10, 50 or 100 μM, 24 hours, nucleoprotein western blot, maximum effect (FIG. 2)) | expression of β-catenin (in words) ([1]; peptide 10, 50 or 100 μM, 24 hours, western blot (FIG. 2)) | translocation of β-catenin from the cytoplasm to the nucleus (in words) [1] | proliferation mechanism promoting activity compared with the known peptide ([1]; same concentration, SEQ ID NO: 1 vs SEQ ID NO: 10 (FIG. 6)) | Cyclin D1 expression increase compared to the control group [2] | inhibiting effect on DKK-1 expression (in words) [3] | DKK-1 expression level reduction compared to the negative control group (DHT treatment group) ([3]; high-concentration peptide treatment group, DHT 100 nM, 24 hours, western blot (FIG. 4)) | ability to inhibit the expression of DKK-1 compared with the known peptide ([3]; same concentration, SEQ ID NO: 1 vs SEQ ID NO: 10 (FIG. 7)) | Lef-1 expression increase compared to the control group [4] | c-Myc expression increase compared to the control group [5] | proliferation increase of hair follicle cells ([6]; peptide 10, 50 or 100 μM, 72 hours, maximum effect (FIG. 1)) | proliferation effect on hair follicle cells (in words) [6] | hair follicle cell proliferation promotion activity compared with the known peptide ([6]; same concentration, SEQ ID NO: 1 vs SEQ ID NO: 10 (FIG. 5)) |
| --- | --- | --- | --- | --- | --- | --- | --- | --- | --- | --- | --- | --- | --- |
| AERRREKCRC [SEQ ID NO: 1] | up to 1.35 times | expression of β-catenin increases | promote the translocation of β-catenin from the cytoplasm to the nucleus in a concentration-dependent manner | significantly higher proliferation mechanism promoting activity than the known peptide | up to 1.96 times | exhibit an inhibiting effect on DKK-1 expression in a concentration-dependent manner; also recorded: inhibiting DKK-1 expression induced by DHT | about 50% | significantly higher ability to inhibit the expression of DKK-1 than the known peptide | up to 3 times | up to 1.62 times | up to 155% | proliferation was induced in a concentration-dependent manner; also recorded: exhibit a proliferation effect on hair follicle cells in a concentration-dependent manner | significantly higher hair follicle cell proliferation promotion activity than the known peptide |
| AERRRELCRC [SEQ ID NO: 10, reference compound] |  |  | promote the translocation of β-catenin from the cytoplasm to the nucleus in a concentration-dependent manner |  |  | exhibit an inhibiting effect on DKK-1 expression in a concentration-dependent manner |  |  |  |  |  | exhibit a proliferation effect on hair follicle cells in a concentration-dependent manner |  |
